Where “and” joins values, the source holds several entries; their conditions need not be identical. Equal entries are not always repeated.
Experiments:
[1] = biological target: T1, OR1A1 (Homo sapiens, UniProt Q9P1Q5); settings: cited from earlier work
T1 sequence (Q9P1Q5 1-309): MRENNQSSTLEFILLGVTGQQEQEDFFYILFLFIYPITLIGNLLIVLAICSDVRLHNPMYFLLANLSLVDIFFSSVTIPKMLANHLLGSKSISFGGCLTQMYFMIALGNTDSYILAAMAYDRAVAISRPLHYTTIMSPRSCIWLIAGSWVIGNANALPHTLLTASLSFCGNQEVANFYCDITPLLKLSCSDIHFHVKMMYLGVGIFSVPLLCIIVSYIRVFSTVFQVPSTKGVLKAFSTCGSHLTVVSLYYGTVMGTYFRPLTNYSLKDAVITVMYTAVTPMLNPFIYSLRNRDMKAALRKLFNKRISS

[2] = biological target: T2, OR2W1 (Homo sapiens, UniProt Q9Y3N9); settings: cited from earlier work
T2 sequence (Q9Y3N9 1-320): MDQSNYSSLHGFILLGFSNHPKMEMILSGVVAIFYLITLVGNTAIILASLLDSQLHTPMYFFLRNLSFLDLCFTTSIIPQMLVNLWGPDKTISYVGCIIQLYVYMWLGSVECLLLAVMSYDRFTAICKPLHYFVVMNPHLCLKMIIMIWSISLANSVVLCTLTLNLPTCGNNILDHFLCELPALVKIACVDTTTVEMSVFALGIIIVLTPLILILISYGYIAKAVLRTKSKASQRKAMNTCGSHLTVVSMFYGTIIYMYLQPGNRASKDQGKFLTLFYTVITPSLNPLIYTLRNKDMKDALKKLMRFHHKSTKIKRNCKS

[3] = biological target: T1, OR1A1; assay: Dual-Glo luciferase reporter gene assay, OR1A1 in Hana3A cells; assay type: cell-based; design: The open reading frames of ORs were amplified using Phusion polymerase; Rho-tag (first 20 amino acids of human rhodopsin) (N); expressed in transfected cells; host or cells: Hana3A cells (derived from HEK293T), pCI vector; co-transfected with human RTP1S, M3 receptor, CRE-Luc and SV40-RL; settings: OR1A1; for normilazed value = (L-400/R-400): three replicates
Method: (§1) Hana3A cells were maintained in minimal essential medium containing 10% FBS (vol/vol) with penicillin-streptomycin and amphotericin B (1/200 each vol/vol) at 37 °C and 5% CO2. Hana3A cells are derived from HEK293T [57] and are optimized for OR studies as shown in several studies, compared to earlier OR expression in Sf9 insect cells in Gat et al., and in Xenopus oocytes, COS-7, PC12h and CHO-K1 cells in Katada et al..
(§2) The Dual-Glo luciferase assay system (Promega, Madison, WI, USA) was used to evaluate the functionality of wild-type OR1A1 and OR2W1 in an in vitro system. The open reading frames of ORs were amplified using Phusion polymerase (Thermo Fisher Scientific, Waltham, MA, USA). Amplified fragments were cloned into pCI expression vector (Promega, Madison, WI, USA) containing the sequence encoding the first 20 amino acids of human rhodopsin (Rho-tag) at N-terminal. Hana3A cells have been cultured and plated the day before transfection with 6 mL at 1/10 of a 100% confluence 100 mm plate into 96-well plates coated with poly D-lysine. After overnight incubation, the required genes were transfected using, for each plate, 5 ng SV40-RL, 10 ng CRE-Luc, 5 ng human RTP1S [72], 2.5 ng M3 receptor [73] and 5 ng of receptor (OR1A1, OR2W1 or empty vector Rho-pCI) plasmid. After around 18 h of transfection, cells were stimulated during 3.5 h by 25 µL of odorant diluted in CD293 + 1% glutamine + 30 µM CuCl2. Odorants were obtained from Sigma Aldrich (St. Louis, MO, USA) and diluted at 1 M concentration in DMSO as stock solutions. […] The luminescence of Firefly (Luc) and Renilla (Rluc) luciferase, were then sequentially monitored by injecting the corresponding substrate following the supplier’s protocol. The activity in each well was normalized as (Luc-400)/(Rluc-400). The response of the receptor was also normalized to its basal activity as (NLX/NL0)-1 where NL0 is the normalized luminescence value at 0 µM of odorant and NLX the value at X µM. […] Raw results were first analyzed with Excel (Microsoft Corporation, Albuquerque, NM, USA) and dose response curves, max efficacy and EC50 have been determined with GraphPrism 6 software (GraphPad Software, La Jolla, CA, USA). Areas under the curves (AUC) were calculated in Excel by summing all the OR responses at different concentrations for each odorant.

[4] = biological target: T2, OR2W1; assay: Dual-Glo luciferase reporter gene assay, OR2W1 in Hana3A cells; assay type: cell-based; design: The open reading frames of ORs were amplified using Phusion polymerase; Rho-tag (first 20 amino acids of human rhodopsin) (N); expressed in transfected cells; host or cells: Hana3A cells (derived from HEK293T), pCI vector; co-transfected with human RTP1S, M3 receptor, CRE-Luc and SV40-RL; settings: OR2W1; for normilazed value = (L-400/R-400): log[molecule], three replicates
Method: as §1, §2

[5] = log(agonist) vs. response (three parameters), 95% CI (profile likelihood), normalized (L-400/R-400)

For `O=C(c1ccccc1)c1ccccc1` [Benzophenone], the “Class (agonist / non-agonist / conflicting info.) for OR1A1” value [1] is listed as “agonist”, the “Class (agonist / non-agonist / antagonist / conflicting info.) for OR2W1” value [2] is listed as “agonist” and the Bottom [3, 5] is listed as -1.851 to 2.543. The Top [3, 5] was 11.67 to 14.46, the “normilazed value = (L-400/R-400)” value ([3]; log[molecule], M = -3.5) was 7.459 and 7.533 and 8.1639 and the “normilazed value = (L-400/R-400)” value ([3]; log[molecule], M = -3.75) was 11.5068 and 9.986 and 11.6353. The “normilazed value = (L-400/R-400)” value ([3]; log[molecule], M = -4) was 12.912 and 14.5062 and 13.7456, the “normilazed value = (L-400/R-400)” value ([3]; log[molecule], M = -4.25) was 14.2415 and 16.6502 and 17.5965 and the “normilazed value = (L-400/R-400)” value ([3]; log[molecule], M = -4.5) was 12.7776 and 13.5787 and 13.5772. For the same molecule, the “normilazed value = (L-400/R-400)” value ([3]; log[molecule], M = -4.75) was 11.0413 and 12.4085 and 13.0495, the “normilazed value = (L-400/R-400)” value ([3]; log[molecule], M = -5) was 8.171 and 9.262 and 9.035 and the “normilazed value = (L-400/R-400)” value ([3]; log[molecule], M = -5.25) was 6.73 and 6.359 and 7.725. For the same molecule, the “normilazed value = (L-400/R-400)” value ([3]; log[molecule], M = -5.5) was 4.815 and 4.814 and 5.195, the “normilazed value = (L-400/R-400)” value ([3]; log[molecule], M = -5.75) was 3.111 and 2.689 and 2.548 and the “normilazed value = (L-400/R-400)” value ([3]; log[molecule], M = -6) was 2.109 and 2.273 and 2.067. The EC50 ([3]; three-parameter fit, 95% CI (profile likelihood)) was 2.47 to 8.3 µM, the LogEC50 ([3]; three-parameter fit, 95% CI (profile likelihood), log[molecule], M) was -5.608 to -5.081 and the Bottom [4, 5] was 9.831 to 25.58. The Top [4, 5] was 33.11 to 38.76, the “normilazed value = (L-400/R-400)” value ([4]; M = -3.5) was 18.7324 and 22.6176 and 22.52 and the “normilazed value = (L-400/R-400)” value ([4]; M = -3.75) was 27.3072 and 27.4246. The “normilazed value = (L-400/R-400)” value ([4]; M = -4) was 38.4836, the “normilazed value = (L-400/R-400)” value ([4]; M = -4.25) was 38.5091 and 37.4777 and the “normilazed value = (L-400/R-400)” value ([4]; M = -4.5) was 37.1848 and 47.4935. For the same molecule, the “normilazed value = (L-400/R-400)” value ([4]; M = -4.75) was 39.8168 and 41.5774 and 37.3522, the “normilazed value = (L-400/R-400)” value ([4]; M = -5) was 38.9191 and 40.737 and 39.7699 and the “normilazed value = (L-400/R-400)” value ([4]; M = -5.25) was 38.6807 and 38.6347 and 47.5267. The “normilazed value = (L-400/R-400)” value ([4]; M = -5.5) was 41.7726 and 40.3216 and 44.1867 and the “normilazed value = (L-400/R-400)” value ([4]; M = -6) was 27.5667 and 27.048.

— article PMC8583936, “Machine Learning Assisted Approach for Finding Novel High Activity Agonists of Human Ectopic Olfactory Receptors” (International Journal of Molecular Sciences, 2021)
